{
  "source": "patent US20190275003A1",
  "about": "“ENCAPSULATION OF PHOSPHODIESTERASE INHIBITORS TO TREAT ALCOHOLIC LIVER DISEASE” (University of Louisville Research Foundation, Inc., priority 2016, published 2019)",
  "key": {"[1]": {"test_system": "α2-adrenoceptor-mediated xylazine/ketamine-induced anesthesia", "assay": "Duration of xylazine/ketamine anesthesia (behavioral correlate of emesis)", "format": "in vivo, male C57BL/6 mice", "conditions": "free rolipram IV, mean of the 3 groups (1.6, 3.3 and 6.6 mg/kg bw); paired control 75.1±4.7 min", "experimental": "FLVs-Rol=Fusogenic lipid vesicles-rolipram.\nSafety pharmacology studies were conducted to determine the dose-response relationship of adverse effects observed by rolipram. The primary side effect of rolipram is the inhibition of PDE4 activity in the CNS, which leads to emesis in humans. The mechanism of the emetic response associated with PDE4 inhibitors is thought to produce a pharmacological response analogous to that of presynaptic α2-adrenoceptor inhibition, by elevating intracellular levels of cAMP in noradrenergic neurons. Consequently, PDE4 inhibitors remove an inhibitory mechanism that modulates the release of mediators (5-HT, substance P, noradrenaline) involved in the onset of the emetic reflex. […]\nSince rodents are a non-vomiting species, examining rolipram-induced side effects in rodents is particularly difficult.^34-36 To circumvent this problem, a behavioral correlate of emesis model in mice was utilized.^35 In this model, rolipram is used to reverse the duration of α2-adrenoceptor-mediated xylazine/ketamine-induced anesthesia, which is temporally quantified by the return of the righting reflex. […] After 15 min, the mice were placed on a controlled heating pad in the dorsal recumbent position and the duration of anesthesia was determined by timing the return of the righting reflex. […]"}, "TNF [2]": {"test_system": "TNF", "assay": "LPS-stimulated TNF expression in human PBMCs pre-treated with rolipram", "format": "cell-based", "experimental": "PBMCs isolated from a healthy individual were pre-treated with rolipram (1, 5, and 10 μM) for 30 minutes and further stimulated with LPS (1 μg/ml) for 6 hours. Cell-free supernatants were analyzed for TNF expression by ELISA. Rol=rolipram. TNF=tumor necrosis factor-alpha, FLVs=fusogenic lipid vesicles.\nThe effect of chronic ethanol exposure on PDE4 gene expression and activity in human THP-1 and mouse RAW macrophages was evaluated next, as a mechanism for the decreased intracellular cAMP levels and the increased LPS-stimulated TNF.^4 PDE4 (predominantly present in monocytes) degrades and inactivates cAMP, with PDE4B playing a critical role in LPS signaling. It was shown that chronic alcohol increased LPS-inducible PDE4B mRNA expression (FIG. 2)."}, "[3]": {"test_system": "cholestatic liver injury and fibrosis", "conditions": "rat, in vivo; cited from earlier work"}, "[4]": {"test_system": "mouse aortic endothelial cells (MAECs)", "assay": "Fusion rate of rolipram-loaded vesicles to MAECs", "format": "cell-based", "excerpt": "FIGS. 8A-B show the fusion rate of FLVs-Rolipram to RAW cells and mouse aortic endothelial cells (MAECs) in the presence or absence of excipients in the vehicle. Using fluorescent-labeled FLVs and a Nanoparticle Tracking Analysis instrument to quantify FLV numbers, the fusion rate of vesicles to RAW cells was quantified over time. (A) Lipid vesicles formulated with DOPC/POPA (3:2) loaded with rolipram (DOPC:POPA-R) fused to RAW cells at a faster rate than DOPC vesicles loaded with rolipram (DOPC). […] FLVs=fusogenic lipid vesicles, SOA=Sucrose octaacetate, SAIB=acetate isobutyrate.\nStudies quantifying the fusion rate of vesicles loaded with rolipram to RAW or mouse aortic endothelial cells (MAECs) were performed. In the first experiment, the fusion rate of lipid vesicles to RAW cells using a highly fusogenic vesicle formulated with DOPC/POPA was compared to less fusogenic vesicle formulated with DOPC (FIG. 8A). […] In the second experiment, the fusion rate of FLVs to MAECs using the excipients sucrose octaacetate (SOA) or SAIB and the same vesicle lipid formulations as in the experiment above were performed. […] Also, SOA an excipient used to enhance the stability of FLVs-rolipram during storage appears to augment the fusion rate of FLVs."}, "[5]": {"test_system": "TNF production in RAW 264.7 cells", "assay": "RAW cell assay: LPS-induced TNF production (ELISA)", "format": "cell-based, mouse", "conditions": "LPS 100 ng/mL 18 h, SAIB 0.5 mg/mL, FLVs 10 mg/mL lipid", "experimental": "Cells were treated with SAIB (0.5 mg/mL), FLVs (10 mg/mL of lipid) with SAIB (FLV-SAIB) or FLVs-rolipram 0.75 mg/mL (FLV-Rol) without SAIB and stimulated with LPS (100 ng/mL) for 18 h. The effect of SAIB was evaluated by quantifying TNF production using an ELISA kit. SAIB alone appears to exert a beneficial effect, and FLVs with SAIB have a greater beneficial effect. FLVs=fusogenic lipid vesicles, LPS=endotoxin, SAIB=acetate isobutyrate.\nCells were treated with 0.73 mg/mL rolipram (Rol), FLVs only, or 0.73 mg/mL of FLVs-rolipram (FLVs-Rol) and stimulated with LPS (100 ng/mL) for 24 h. Control cells received treatment but no LPS. TNF in media was measured using an ELISA kit. UT=untreated cells, FLVs=fusogenic vesicles, LPS=endotoxin.\nThe effect of adding SAIB (0.5 mg/mL) to the vehicle was tested in vitro using RAW cells pulsed with LPS (100 ng/mL) and evaluated for TNF production. Rolipram (0.75 mg/mL) encapsulated in of 10 mg/mL of lipid without SAIB was used as a control.\nAn in vitro screening assay to evaluate the effectiveness of the FLVs-rolipram formulations was developed. The assay uses a murine macrophage cell line (RAW 264.7 cells), which produces high levels of TNF in response to LPS stimulation. […] After 24 h, TNF protein was measured in cell free supernatant by ELISA kit (FIG. 14)."}, "[6]": {"assay": "Encapsulation efficiency of rolipram in FLVs", "format": "physicochemical", "conditions": "FLVs 10 mg/mL lipid, rolipram 0.75 mg/mL, diluted 5 or 10 times", "experimental": "FIGS. 5A-C show the encapsulation efficiency percent of rolipram when 10 (A), 12.5 (B) and 15 mg/mL of FLV lipid (C) was hydrated with buffer containing 0.75 mg/mL of rolipram and diluted in water five or 10 times. The percentage of free rolipram in buffer was calculated by measuring the amount of free drug in buffer after FLVs in solution were filtered out. More than 50% of drug remained encapsulated with either of the dilutions over time. The amount of rolipram associated with FLVs appeared to fluctuate over time but it stabilized at the end of […]. FLVs=fusogenic vesicles.\nAfter dilution the rolipram EE % of FLVs was similar when either excipient or no excipient was utilized. FLVs=fusogenic lipid vesicles, SOA=Sucrose octaacetate, SAIB=acetate isobutyrate.\nTo evaluate the ability of the FLVs to retain rolipram in an aqueous system, 0.75 mg/mL of rolipram was loaded into the lipid bilayer and internal liquid compartment of FLVs using four concentrations of lipid: 5, 10, 12.5, and 15 mg/ml. The rolipram encapsulation efficiency was quantified.\nTo evaluate the effect of dilution on encapsulation efficiency of FLVs-rolipram, different concentrations of FLV lipid (10, 12.5 and 15 mg/ML) were hydrated with the same amount of rolipram (0.75 mg/mL) and then diluted in water 5 and 10 times. Rolipram levels in the external buffer compartment were measured over a 90 min period. […]"}, "alcoholic hepatitis": {"test_system": "alcoholic hepatitis", "conditions": "human clinical studies; cited from earlier work"}, "[7]": {"test_system": "liver injury and fibrosis", "conditions": "several animal models; cited from earlier work"}, "TNF [8]": {"test_system": "TNF", "assay": "LPS mediated TNF expression in ethanol treated cells", "format": "cell-based", "conditions": "data not shown", "excerpt": "Studies in monocytes have shown that cAMP plays an important role in regulating TNF expression, and that the elevation of cellular cAMP suppresses TNF production. Therefore, the instant inventors evaluated (1) the effects of chronic ethanol exposure on the cellular levels of cAMP, and (2) TNF expression in monocytes in vitro and in rat primary hepatic Kupffer cells obtained from a clinically relevant enteral alcohol feeding model of alcoholic liver disease (ALD). […] Consistent with these decreased cAMP levels, ethanol led to an increase in LPS-inducible TNF mRNA expression (FIG. 2) and TNF protein, without any change in the TNF mRNA stability (data not shown). Enhancement of cellular cAMP with dbcAMP abrogated LPS mediated TNF expression in ethanol treated cells (data not shown)."}},
  "data": [
    {"compound": "COc1ccc(C2CNC(=O)C2)cc1OC1CCCC1", "note": "(stereo not drawn) [rolipram, 4-(3-Cyclopentyloxy-4-methoxy-phenyl) pyrrolidin-2-one]", "values": [
      {"measurement": "mean anesthesia time", "setting": "[1]", "value": "48.6 ± 5.5", "unit": "min"},
      {"measurement": "TNF mRNA", "setting": "TNF [2]; human PBMCs stimulated with LPS, data not shown", "value": "significantly downregulated"},
      {"measurement": "TNF protein", "setting": "TNF [2]; human PBMCs, rolipram 1, 5, 10 μM 30 min, LPS 1 μg/ml 6 h, ELISA, dose-dependent", "value": "significantly downregulated"},
      {"measurement": "protection against cholestatic liver injury and fibrosis", "setting": "[3]", "value": "significant protection"}
    ]},
    {"compound": "sucrose acetate isobutyrate [SAIB]", "values": [
      {"measurement": "effect of excipient on fusion rate of DOPC/POPA FLVs-rolipram to MAECs", "setting": "[4]", "value": "appeared to decrease the fusion rate"},
      {"measurement": "TNF production", "setting": "[5]", "value": "reduced the effect of LPS"},
      {"measurement": "effect of excipient on rolipram encapsulation efficiency", "setting": "[6]", "value": "did not significantly alter"}
    ]},
    {"compound": "CC(=O)CCCCn1c(=O)c2c(ncn2C)n(C)c1=O", "note": "[Pentoxifylline]", "values": [
      {"measurement": "mortality in patients with AH", "setting": "alcoholic hepatitis", "value": "decreased mortality"},
      {"measurement": "liver injury and fibrosis", "setting": "[7]", "value": "attenuate liver injury and fibrosis"}
    ]},
    {"compound": "CCCC(=O)Nc1ncnc2c1ncn2[C@@H]1O[C@@H]2COP(=O)(O)O[C@H]2[C@H]1OC(=O)CCC", "note": "[dbcAMP]", "values": [
      {"measurement": "LPS mediated TNF expression", "setting": "TNF [8]", "value": "abrogated"}
    ]},
    {"compound": "CC(=O)OC[C@H]1O[C@@](COC(C)=O)(O[C@H]2O[C@H](COC(C)=O)[C@@H](OC(C)=O)[C@H](OC(C)=O)[C@H]2OC(C)=O)[C@@H](OC(C)=O)[C@@H]1OC(C)=O", "note": "[SOA, sucrose octaacetate]", "values": [
      {"measurement": "effect of excipient on fusion rate of DOPC/POPA FLVs-rolipram to MAECs", "setting": "[4]", "value": "enhanced the fusion rate"},
      {"measurement": "effect of excipient on rolipram encapsulation efficiency", "setting": "[6]", "value": "did not significantly alter"}
    ]}
  ]
}
